The target of experiment [1] is T1, Mitogen-activated protein kinase kinase kinase 3 (Homo sapiens, UniProt Q99759).
T1 sequence (Q99759 whole entry): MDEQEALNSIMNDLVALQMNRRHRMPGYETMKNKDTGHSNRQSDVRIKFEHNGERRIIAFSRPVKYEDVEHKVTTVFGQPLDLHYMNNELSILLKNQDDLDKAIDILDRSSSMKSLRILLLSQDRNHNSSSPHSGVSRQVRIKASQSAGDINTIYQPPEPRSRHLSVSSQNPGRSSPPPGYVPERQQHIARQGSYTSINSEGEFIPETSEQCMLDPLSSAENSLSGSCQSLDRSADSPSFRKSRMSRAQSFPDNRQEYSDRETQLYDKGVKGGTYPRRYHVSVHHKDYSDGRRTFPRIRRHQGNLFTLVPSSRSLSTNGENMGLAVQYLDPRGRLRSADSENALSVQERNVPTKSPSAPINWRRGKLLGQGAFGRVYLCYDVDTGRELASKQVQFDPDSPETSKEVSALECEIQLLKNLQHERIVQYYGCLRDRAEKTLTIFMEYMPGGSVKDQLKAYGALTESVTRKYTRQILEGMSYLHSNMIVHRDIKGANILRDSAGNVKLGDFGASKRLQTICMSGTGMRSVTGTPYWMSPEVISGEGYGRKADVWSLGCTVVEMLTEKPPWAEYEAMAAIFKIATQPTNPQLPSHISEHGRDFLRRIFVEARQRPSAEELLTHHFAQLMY

The target in experiment [2] is T2, Dual specificity mitogen-activated protein kinase kinase 5 (Homo sapiens, UniProt Q13163).
T2 sequence (Q13163 whole entry): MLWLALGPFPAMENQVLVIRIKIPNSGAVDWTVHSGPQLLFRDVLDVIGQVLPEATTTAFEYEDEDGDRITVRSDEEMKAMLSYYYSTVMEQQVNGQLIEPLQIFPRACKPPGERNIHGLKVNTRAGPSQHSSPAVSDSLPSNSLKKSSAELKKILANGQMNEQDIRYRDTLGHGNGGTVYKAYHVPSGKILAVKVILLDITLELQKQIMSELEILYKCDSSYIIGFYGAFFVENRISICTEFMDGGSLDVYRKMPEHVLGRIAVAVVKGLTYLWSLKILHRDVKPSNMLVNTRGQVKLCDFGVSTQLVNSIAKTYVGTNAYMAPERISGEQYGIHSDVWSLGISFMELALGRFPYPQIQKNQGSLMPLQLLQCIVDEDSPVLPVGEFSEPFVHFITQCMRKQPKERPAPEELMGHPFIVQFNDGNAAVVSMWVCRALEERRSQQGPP

For experiment [3], the target named is Receptor-interacting serine/threonine-protein kinase 2 (Homo sapiens, UniProt O43353).
Sequence of Receptor-interacting serine/threonine-protein kinase 2 (O43353 whole entry): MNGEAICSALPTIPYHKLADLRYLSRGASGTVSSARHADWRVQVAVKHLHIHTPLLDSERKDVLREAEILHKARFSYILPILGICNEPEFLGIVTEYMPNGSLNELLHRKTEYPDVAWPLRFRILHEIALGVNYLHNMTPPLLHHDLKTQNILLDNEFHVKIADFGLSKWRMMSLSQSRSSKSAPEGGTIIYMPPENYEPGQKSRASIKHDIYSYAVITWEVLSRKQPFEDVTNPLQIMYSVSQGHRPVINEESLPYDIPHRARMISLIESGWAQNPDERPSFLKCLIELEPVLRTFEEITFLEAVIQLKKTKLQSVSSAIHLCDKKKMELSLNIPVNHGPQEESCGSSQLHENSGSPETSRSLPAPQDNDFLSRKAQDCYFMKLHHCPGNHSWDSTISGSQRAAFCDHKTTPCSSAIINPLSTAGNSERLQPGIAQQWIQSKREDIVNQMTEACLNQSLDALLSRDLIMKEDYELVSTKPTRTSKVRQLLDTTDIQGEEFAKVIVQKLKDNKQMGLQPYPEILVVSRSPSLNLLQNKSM
In experiment [4] the target is T3, Peroxisomal acyl-coenzyme A oxidase 3 (Homo sapiens, UniProt O15254).
T3 sequence (O15254 whole entry): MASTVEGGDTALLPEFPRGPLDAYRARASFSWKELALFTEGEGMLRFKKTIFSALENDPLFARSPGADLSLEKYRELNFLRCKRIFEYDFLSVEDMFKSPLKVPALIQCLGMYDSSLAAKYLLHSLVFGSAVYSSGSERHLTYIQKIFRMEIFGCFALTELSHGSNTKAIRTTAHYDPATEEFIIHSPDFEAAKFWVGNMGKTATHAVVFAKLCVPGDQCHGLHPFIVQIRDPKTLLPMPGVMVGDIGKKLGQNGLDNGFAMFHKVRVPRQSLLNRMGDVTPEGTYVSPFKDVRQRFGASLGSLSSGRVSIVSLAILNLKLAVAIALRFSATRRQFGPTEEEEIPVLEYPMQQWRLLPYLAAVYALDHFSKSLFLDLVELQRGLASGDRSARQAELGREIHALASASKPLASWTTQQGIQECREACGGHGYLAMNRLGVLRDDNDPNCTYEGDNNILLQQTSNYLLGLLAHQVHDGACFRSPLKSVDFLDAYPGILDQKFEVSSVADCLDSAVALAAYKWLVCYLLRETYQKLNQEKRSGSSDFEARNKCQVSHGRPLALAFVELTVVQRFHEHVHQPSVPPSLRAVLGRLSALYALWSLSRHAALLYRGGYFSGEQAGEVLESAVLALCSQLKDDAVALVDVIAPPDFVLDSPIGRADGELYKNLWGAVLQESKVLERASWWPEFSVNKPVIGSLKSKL

Experiment [5] deals with Ribosomal protein S6 kinase beta-1 (Homo sapiens, UniProt P23443).
Sequence of Ribosomal protein S6 kinase beta-1 (P23443 whole entry): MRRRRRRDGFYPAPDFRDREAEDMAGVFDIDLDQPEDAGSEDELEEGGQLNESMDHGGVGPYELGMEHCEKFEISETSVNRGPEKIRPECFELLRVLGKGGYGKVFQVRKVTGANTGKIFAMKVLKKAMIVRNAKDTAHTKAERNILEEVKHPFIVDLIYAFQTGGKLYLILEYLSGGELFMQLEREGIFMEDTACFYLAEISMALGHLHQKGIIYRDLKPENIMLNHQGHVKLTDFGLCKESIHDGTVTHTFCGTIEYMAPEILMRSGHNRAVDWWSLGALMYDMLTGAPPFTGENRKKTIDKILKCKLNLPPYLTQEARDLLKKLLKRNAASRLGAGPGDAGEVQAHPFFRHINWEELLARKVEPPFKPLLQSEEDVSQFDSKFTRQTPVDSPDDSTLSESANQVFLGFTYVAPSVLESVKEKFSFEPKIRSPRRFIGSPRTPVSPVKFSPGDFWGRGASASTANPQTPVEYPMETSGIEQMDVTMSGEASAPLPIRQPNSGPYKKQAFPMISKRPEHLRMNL
For experiment [6], the target named is Cyclin-dependent kinase 12 (Homo sapiens, UniProt Q9NYV4).
Sequence of Cyclin-dependent kinase 12 (Q9NYV4 whole entry): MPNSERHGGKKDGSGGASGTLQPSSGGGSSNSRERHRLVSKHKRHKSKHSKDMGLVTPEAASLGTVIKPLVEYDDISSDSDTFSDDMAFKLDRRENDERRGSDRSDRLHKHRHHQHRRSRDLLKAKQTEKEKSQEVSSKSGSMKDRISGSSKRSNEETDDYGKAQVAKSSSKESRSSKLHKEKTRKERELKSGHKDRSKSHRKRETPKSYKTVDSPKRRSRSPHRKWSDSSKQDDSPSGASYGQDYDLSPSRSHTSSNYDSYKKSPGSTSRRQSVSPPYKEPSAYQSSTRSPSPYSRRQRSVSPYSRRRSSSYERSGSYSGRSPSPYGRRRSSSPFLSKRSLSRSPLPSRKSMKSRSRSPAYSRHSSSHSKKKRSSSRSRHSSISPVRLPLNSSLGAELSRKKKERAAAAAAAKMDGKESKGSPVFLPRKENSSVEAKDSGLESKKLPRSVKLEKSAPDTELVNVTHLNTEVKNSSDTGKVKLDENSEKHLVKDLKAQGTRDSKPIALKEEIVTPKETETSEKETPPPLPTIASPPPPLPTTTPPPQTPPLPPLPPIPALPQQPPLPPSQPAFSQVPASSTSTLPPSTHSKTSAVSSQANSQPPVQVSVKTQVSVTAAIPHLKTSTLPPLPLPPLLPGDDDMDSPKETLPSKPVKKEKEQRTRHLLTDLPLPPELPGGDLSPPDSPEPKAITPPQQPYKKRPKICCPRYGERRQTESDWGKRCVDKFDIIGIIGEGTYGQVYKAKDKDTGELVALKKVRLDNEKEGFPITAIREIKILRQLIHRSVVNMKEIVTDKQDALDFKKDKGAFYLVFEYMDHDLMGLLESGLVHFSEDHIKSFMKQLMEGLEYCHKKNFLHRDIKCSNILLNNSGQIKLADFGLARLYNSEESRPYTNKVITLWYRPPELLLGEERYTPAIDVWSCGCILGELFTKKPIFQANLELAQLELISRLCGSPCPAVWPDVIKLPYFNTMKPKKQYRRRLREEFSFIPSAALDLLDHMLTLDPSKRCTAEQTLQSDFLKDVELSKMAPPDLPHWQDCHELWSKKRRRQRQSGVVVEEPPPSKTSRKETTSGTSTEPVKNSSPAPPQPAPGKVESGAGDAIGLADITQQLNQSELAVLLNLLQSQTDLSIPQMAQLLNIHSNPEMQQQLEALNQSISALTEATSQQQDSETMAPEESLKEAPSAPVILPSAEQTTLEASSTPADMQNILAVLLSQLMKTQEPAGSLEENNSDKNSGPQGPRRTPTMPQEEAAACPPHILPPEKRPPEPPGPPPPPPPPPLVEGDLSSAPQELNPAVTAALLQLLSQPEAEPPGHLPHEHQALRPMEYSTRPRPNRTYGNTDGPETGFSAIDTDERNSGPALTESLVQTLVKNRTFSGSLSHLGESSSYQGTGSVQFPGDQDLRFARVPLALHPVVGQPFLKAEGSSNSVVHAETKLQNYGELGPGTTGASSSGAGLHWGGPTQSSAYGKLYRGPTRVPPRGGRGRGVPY
Experiment [7] concerns the target Insulin-like growth factor 1 receptor (Homo sapiens, UniProt P08069).
For experiment [8], the target named is T4, Electron transfer flavoprotein subunit beta (Homo sapiens, UniProt P38117).
T4 sequence (P38117 whole entry): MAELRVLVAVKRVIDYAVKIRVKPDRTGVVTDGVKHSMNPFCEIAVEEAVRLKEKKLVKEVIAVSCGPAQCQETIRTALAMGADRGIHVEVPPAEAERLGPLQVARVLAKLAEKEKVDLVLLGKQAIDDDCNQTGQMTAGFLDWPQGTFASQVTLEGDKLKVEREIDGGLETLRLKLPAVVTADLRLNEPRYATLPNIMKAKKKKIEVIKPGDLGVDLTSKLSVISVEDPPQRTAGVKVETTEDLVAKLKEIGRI

Active and inactive are the calls of the source.
Also: in the data inactive means no Kd found up to 30 µM.

Sequence of Insulin-like growth factor 1 receptor (P08069 31-736 limits assumed): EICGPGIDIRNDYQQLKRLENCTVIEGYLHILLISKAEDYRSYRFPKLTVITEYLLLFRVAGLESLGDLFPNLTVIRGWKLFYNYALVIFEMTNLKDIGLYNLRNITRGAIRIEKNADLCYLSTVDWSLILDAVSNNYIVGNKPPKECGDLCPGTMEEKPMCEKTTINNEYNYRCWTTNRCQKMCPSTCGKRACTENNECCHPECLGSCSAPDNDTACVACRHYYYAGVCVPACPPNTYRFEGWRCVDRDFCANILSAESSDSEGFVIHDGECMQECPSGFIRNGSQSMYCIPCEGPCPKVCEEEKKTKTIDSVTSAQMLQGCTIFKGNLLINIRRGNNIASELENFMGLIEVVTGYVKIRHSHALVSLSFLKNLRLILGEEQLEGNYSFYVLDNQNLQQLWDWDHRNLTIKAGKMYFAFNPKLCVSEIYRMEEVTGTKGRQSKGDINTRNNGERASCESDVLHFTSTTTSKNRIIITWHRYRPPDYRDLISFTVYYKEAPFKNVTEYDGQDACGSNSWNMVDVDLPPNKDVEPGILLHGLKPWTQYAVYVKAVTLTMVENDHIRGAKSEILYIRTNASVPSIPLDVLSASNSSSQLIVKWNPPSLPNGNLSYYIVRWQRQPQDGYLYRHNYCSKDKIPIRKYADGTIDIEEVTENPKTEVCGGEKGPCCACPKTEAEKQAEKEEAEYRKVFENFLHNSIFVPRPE
Sequence of Insulin-like growth factor 1 receptor (P08069 741-1367 limits assumed): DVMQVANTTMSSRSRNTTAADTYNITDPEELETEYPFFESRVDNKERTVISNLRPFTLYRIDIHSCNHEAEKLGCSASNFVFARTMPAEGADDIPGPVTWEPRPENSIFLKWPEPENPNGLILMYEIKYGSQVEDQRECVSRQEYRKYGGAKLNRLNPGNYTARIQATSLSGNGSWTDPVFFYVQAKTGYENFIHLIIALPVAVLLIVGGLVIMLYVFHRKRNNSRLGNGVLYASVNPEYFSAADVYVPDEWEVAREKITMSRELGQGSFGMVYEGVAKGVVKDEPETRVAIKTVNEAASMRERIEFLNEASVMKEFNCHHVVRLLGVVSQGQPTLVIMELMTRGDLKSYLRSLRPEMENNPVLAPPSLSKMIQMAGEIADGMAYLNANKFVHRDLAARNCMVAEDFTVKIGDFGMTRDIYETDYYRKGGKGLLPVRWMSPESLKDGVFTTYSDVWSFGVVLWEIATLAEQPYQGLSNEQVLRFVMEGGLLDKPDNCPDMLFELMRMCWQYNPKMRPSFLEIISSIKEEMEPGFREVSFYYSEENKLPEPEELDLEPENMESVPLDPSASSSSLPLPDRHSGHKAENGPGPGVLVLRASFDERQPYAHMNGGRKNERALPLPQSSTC

In the case of `Cc1ccc(S(=O)(=O)Nc2nc3ccccc3nc2Nc2ccc3nsnc3c2)cc1`, the Kd in experiment [1], in experiment [2], in experiment [3], in experiment [4], in experiment [5] and in experiment [6] was > 30 µM (inactive) throughout. For the same compound, the Kd in experiment [7] was > 30 µM (inactive).
For the compound `Cn1cc(-c2ccc(F)c(C(F)(F)F)c2)nc1C1CCN(c2ncnc3[nH]ncc23)CC1` [LY-2584702], the Kd in experiment [1] was > 30 µM (inactive); in experiment [2], > 30 µM (inactive); in experiment [3] it was > 30 µM (inactive); in experiment [4], > 30 µM (inactive); in experiment [5], 0.015 µM (active); in experiment [6] it was > 30 µM (inactive). In addition, in experiment [7], the Kd is > 30 µM (inactive).
For the compound `COc1cc(OC)c(/C=C/S(=O)(=O)Cc2ccc(OC)c(NCC(=O)O)c2)c(OC)c1` [RIGOSERTIB], the Kd in experiment [1], in experiment [2], in experiment [3], in experiment [4], in experiment [5] and in experiment [6] was > 30 µM (inactive) in each case. Also, the Kd in experiment [7] is > 30 µM (inactive).
Regarding `CCn1c(-c2nonc2N)nc2c(C#CC(C)(C)O)ncc(OC[C@H]3CCCNC3)c21` [GSK-690693], the Kd in experiment [8], in experiment [4] and in experiment [6] was > 30 µM (inactive) each time.
Turning to `Cc1cc(Nc2cc(N3CCN(C)CC3)nc(/C=C/c3ccccc3)n2)n[nH]1` [ENMD-2076], the Kd in experiment [1], in experiment [2], in experiment [3], in experiment [8], in experiment [4] and in experiment [6] was > 30 µM (inactive) in each case.
As to `O=C1NC(=O)/C(=C/c2ccc3nccc(-c4ccncc4)c3c2)S1` [GSK-1059615], the Kd in experiment [1], in experiment [2], in experiment [3], in experiment [4], in experiment [5] and in experiment [6] was > 30 µM (inactive) throughout. The Kd in experiment [7] is > 30 µM (inactive).
Turning to `Cc1c(F)cc(C(=O)NC2CC2)cc1-c1ccc(C(=O)NCC(C)(C)C)cn1` [LOSMAPIMOD], the Kd in experiment [1], in experiment [2], in experiment [3], in experiment [4], in experiment [5] and in experiment [6] was > 30 µM (inactive) in each case. Moreover, the Kd in experiment [7] is > 30 µM (inactive).
Turning to `COc1cc(CCc2cc(NC(=O)c3ccc(N4C[C@@H](C)N[C@@H](C)C4)cc3)n[nH]2)cc(OC)c1` [AZD-4547], the Kd in experiment [1], in experiment [2], in experiment [3], in experiment [4], in experiment [5] and in experiment [6] was > 30 µM (inactive) each time. For the same compound, in experiment [7], the Kd is > 30 µM (inactive).
Consider `C=CC(=O)N1CCC(Oc2cc3c(Nc4ccc(Cl)c(Cl)c4F)ncnc3cc2OC)CC1` [POZIOTINIB], for which the Kd in experiment [1] is > 30 µM (inactive); in experiment [2], > 30 µM (inactive); in experiment [3], 0.048 µM (active); in experiment [4] it was > 30 µM (inactive); in experiment [5], > 30 µM (inactive); in experiment [6], > 30 µM (inactive). Moreover, in experiment [7], the Kd is > 30 µM (inactive).
For `Nc1nc(N)c2nc(-c3cccc(O)c3)c(-c3cccc(O)c3)nc2n1` [TG100-115], the Kd in experiment [4] and in experiment [6] was > 30 µM (inactive) throughout.
`CN1CCN(c2ccc3nc(-c4c(N)c5c(F)cccc5[nH]c4=O)[nH]c3c2)CC1` [DOVITINIB]: the Kd in experiment [8], in experiment [4] and in experiment [6] was > 30 µM (inactive) each time.
As to `O=C(Nc1cccc(Cl)c1)Nc1ncc(CCNc2ncnc3ccsc23)s1` [SNS-314], the Kd is > 30 µM (inactive) in experiment [1]; > 30 µM (inactive) in experiment [2]; > 30 µM (inactive) in experiment [3]; > 30 µM (inactive) in experiment [8]; 0.026 µM (active) in experiment [4]; > 30 µM (inactive) in experiment [6].
As to `C1=C/COCc2cc(ccc2OCCN2CCCC2)Nc2nccc(n2)-c2cccc(c2)COC/1` [PACRITINIB], the Kd in experiment [1], in experiment [2], in experiment [3], in experiment [4], in experiment [5] and in experiment [6] was > 30 µM (inactive) throughout. In addition, the Kd in experiment [7] is > 30 µM (inactive).
In the case of `COc1cc2nccc(Oc3ccc(NC(=O)NC4CC4)c(Cl)c3)c2cc1C(N)=O` [LENVATINIB], the Kd is > 30 µM (inactive) in experiment [1]; 2.91 µM (active) in experiment [2]; 0.011 µM (active) in experiment [3]; > 30 µM (inactive) in experiment [8]; > 30 µM (inactive) in experiment [4]; > 30 µM (inactive) in experiment [6]. In experiment [7], the Kd is > 30 µM (inactive).
For `C[C@@H](c1ccc2nccn2c1)n1nnc2ncc(-c3cnn(C)c3)nc21` [SAVOLITINIB], the Kd in experiment [1], in experiment [2], in experiment [3], in experiment [8], in experiment [4] and in experiment [6] was > 30 µM (inactive) in each case. Also, the Kd in experiment [7] is > 30 µM (inactive).
As to `Cc1nc(N)sc1-c1ccnc(Nc2ccc(N3CCOCC3)cc2)n1` [CYC-116], the Kd in experiment [1] was > 30 µM (inactive); in experiment [2], 1.48 µM (active); in experiment [8], > 30 µM (inactive); in experiment [4], > 30 µM (inactive); in experiment [6] it was > 30 µM (inactive).
Take `CC(C)Nc1cc(-c2c[nH]c(C(=O)N[C@H](CO)c3cccc(Cl)c3)c2)c(Cl)cn1` [ULIXERTINIB]: the Kd in experiment [1], in experiment [2], in experiment [3], in experiment [4], in experiment [5] and in experiment [6] was > 30 µM (inactive) each time. Moreover, the Kd in experiment [7] was > 30 µM (inactive).
Regarding `Cc1cn(-c2cc(NC(=O)c3ccc(C)c(Nc4nccc(-c5cccnc5)n4)c3)cc(C(F)(F)F)c2)cn1` [NILOTINIB], the Kd in experiment [4] and in experiment [6] was > 30 µM (inactive) in each case.
`O=C(c1ccc(F)c(F)c1Nc1ccc(I)cc1F)N1CC(O)([C@@H]2CCCCN2)C1` [COBIMETINIB]: the Kd in experiment [1], in experiment [2], in experiment [3], in experiment [8], in experiment [4] and in experiment [6] was > 30 µM (inactive) throughout. Moreover, the Kd in experiment [7] was > 30 µM (inactive).

In general, Kd refers to the concentration at which binding is half-saturated.

(Values after ChEMBL document CHEMBL3991601, “The target landscape of clinical kinase drugs” (Science, 2017).)
